Results reported in ChEMBL document CHEMBL1152876, “Synthesis and evaluation of novel phosphoramidate prodrugs of 2'-methyl cytidine as inhibitors of hepatitis C virus NS5B polymerase” (Bioorg Med Chem Lett, 2009).

Tests used:
[1] = test system: Hepatitis C virus; experiment: Antiviral activity against HCV infected in human hepatoma cells by replicon assay; type: functional, Hepacivirus hominis
[2] = test system: Rattus norvegicus; experiment: Metabolic stability in rat liver assessed as nucleoside triphosphate formation at 30 umol/kg, po after 6 hrs; conditions: in vivo
[3] = test system: Hepatocyte; experiment: Metabolic stability in rat hepatocyte assessed as nucleoside triphosphate at 10 uM level after 2 hrs; conditions: hepatocytes
[4] = test system: Hepatocyte; experiment: Metabolic stability in human hepatocyte assessed as nucleoside triphosphate at 10 uM level after 2 hrs; conditions: hepatocytes

Stability [3] [µM] | Stability [4] [µM] | Compound | Activity [1] [nM] | Stability [2] [nmol/g]
 |  | C[C@@]1(O)[C@H](O)[C@@H](COP(=O)(NCCOC(=O)C2CCCCCC2)Oc2ccccc2)O[C@H]1n1ccc(N)nc1=O (some centres not stated) | 1160 | 
 |  | CC(C)(C)C(=O)OCCNP(=O)(OC[C@H]1O[C@@H](n2ccc(N)nc2=O)[C@](C)(O)[C@@H]1O)Oc1ccccc1 (some centres not stated) | 226 | 
 |  | C[C@@]1(O)[C@H](O)[C@@H](COP(=O)(NCCOC(=O)c2ccccc2)Oc2ccccc2)O[C@H]1n1ccc(N)nc1=O (some centres not stated) | 1960 | 0.3
 |  | CC(C)C(=O)OCC(Cc1ccccc1)NP(=O)(OC[C@H]1O[C@@H](n2ccc(N)nc2=O)[C@](C)(O)[C@@H]1O)Oc1ccccc1 (some centres not stated) | 921 | 
 |  | CC(C)C(=O)O[C@H]1CCN(P(=O)(OC[C@H]2O[C@@H](n3ccc(N)nc3=O)[C@](C)(O)[C@@H]2O)Oc2ccccc2)C1 (some centres not stated) | <20000 | 
 |  | CC(C)CC(COC(=O)C(C)(C)C)NP(=O)(OC[C@H]1O[C@@H](n2ccc(N)nc2=O)[C@](C)(O)[C@@H]1O)Oc1ccccc1 (some centres not stated) | 1840 | 
 |  | CC(CNP(=O)(OC[C@H]1O[C@@H](n2ccc(N)nc2=O)[C@](C)(O)[C@@H]1O)Oc1ccccc1)OC(=O)C(C)C (some centres not stated) | 585 | 
 |  | CCC(CC)C(=O)OCCNP(=O)(OC[C@H]1O[C@@H](n2ccc(N)nc2=O)[C@](C)(O)[C@@H]1O)Oc1ccccc1 (stereo in doubt; 9) [DIASTEREOMERIC MIX] | 2830 | 
 |  | CCC(CC)C(=O)OCCNP(=O)(OC[C@H]1O[C@@H](n2ccc(N)nc2=O)[C@](C)(O)[C@@H]1O)Oc1ccccc1 (stereo in doubt; 9b) [DIASTEREOMERIC MIX] | 625 | 
 |  | CCCC(CCC)C(=O)OCCNP(=O)(OC[C@H]1O[C@@H](n2ccc(N)nc2=O)[C@](C)(O)[C@@H]1O)Oc1ccccc1 (stereo in doubt; 10a) [2-((((2R,3R,4R,5R)-5-(4-AMINO-2-OXOPYRIMIDIN-1(2H)-YL)-3,4-DIHYDROXY-4-METHYLTETRAHYDROFURAN-2-YL)METHOXY)(PHENOXY)PHOSPHORYLAMINO)ETHYL 2-PROPYLPENTANOATE (DIASTEREOMERIC  MIX)] | 450 | 
 |  | CCCC(CCC)C(=O)OCCNP(=O)(OC[C@H]1O[C@@H](n2ccc(N)nc2=O)[C@](C)(O)[C@@H]1O)Oc1ccccc1 (stereo in doubt; 10b) [2-((((2R,3R,4R,5R)-5-(4-AMINO-2-OXOPYRIMIDIN-1(2H)-YL)-3,4-DIHYDROXY-4-METHYLTETRAHYDROFURAN-2-YL)METHOXY)(PHENOXY)PHOSPHORYLAMINO)ETHYL 2-PROPYLPENTANOATE (DIASTEREOMERIC  MIX)] | 240 | 0.2
< 14 | 17 | CC(C)[C@H](N)C(=O)O[C@@H]1[C@@H](CO)O[C@@H](n2ccc(N)nc2=O)[C@]1(C)O [VALOPICITABINE] | 7600 | 0.2
